Data set [1] has as its target T1, ALDH1B1 (Homo sapiens, UniProt P30837).
T1 sequence (P30837 18-517): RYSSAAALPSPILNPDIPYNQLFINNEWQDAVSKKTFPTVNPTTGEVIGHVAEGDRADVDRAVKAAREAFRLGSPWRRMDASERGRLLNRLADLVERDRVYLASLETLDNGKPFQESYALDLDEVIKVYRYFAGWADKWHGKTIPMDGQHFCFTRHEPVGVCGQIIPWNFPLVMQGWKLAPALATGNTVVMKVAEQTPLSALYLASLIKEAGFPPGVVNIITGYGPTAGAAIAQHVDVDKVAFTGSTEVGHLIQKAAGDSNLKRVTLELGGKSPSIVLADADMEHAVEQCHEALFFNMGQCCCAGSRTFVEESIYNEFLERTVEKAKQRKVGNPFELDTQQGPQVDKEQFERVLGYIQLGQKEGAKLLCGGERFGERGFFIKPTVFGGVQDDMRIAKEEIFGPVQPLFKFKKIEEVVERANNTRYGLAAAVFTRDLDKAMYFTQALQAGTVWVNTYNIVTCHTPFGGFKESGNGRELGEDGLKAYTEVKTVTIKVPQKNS
Description: ALDH1B1 enzyme kinetics assay (NADH fluorescence, acetaldehyde substrate). In kind it is biochemical. Set-up: made in house; host or cells: E. coli BL21 (optionally co-expressed with GroEL/GroES). To be noted: for ALDH1B1 inhibition / isoform selectivity (in words): enzyme kinetics assays against ALDH isoforms. As for the experimental part:
Cloning, expression, and purification of human recombinant ALDH1A1, ALDH1A3, ALDH2, ALDH3A1, ALDH3A2, ALDH4A1, ALDH5A1 and ALDH7A1 isozymes were conducted as described previously (Chen, C. H. et al. (2015) Proc. Natl. Acad. Sci. U.S.A. 112, 3074-3079). Human ALDH1A2 (Origene, SC109995) and ALDH1B1 (T. Hurley, Indiana University) plasmids were cloned into the pET-15b expression vector (Novagen, 69661-3) containing an N-terminal hexahistidine tag. The mitochondria-targeting sequence of ALDH1B1 was also removed. For protein expression without chaperones, the pET-15b based plasmids were transformed into competent BL21 E. coli cells, which were subsequently grown in 1 L of Luria-Bertani medium containing 100 μg/mL ampicillin at 37° C. Once the OD600 value reached 0.6, the culture was transferred to 16° C. and 0.5 mM isopropyl β-d-1-thiogalactopyranoside was introduced to induce protein expression overnight. The bacteria were then pelleted by centrifugation (3000×g, 4° C. for 30 rain) and harvested. 40 mL BugBuster Master Mix buffer (MilliporeSigrna) containing a protease inhibitor cocktail (cOmplete; Roche) was added, and the cells were lysed by mechanically rolling the suspension at room temperature for 25 min. The lysate was centrifuged (16000×g, 4° C. for 30 min), and the soluble fraction was collected and mixed with 2 mL of Ni-NTA Superflow resin (Qiagen). After the mixture was avowed to rock at 4° C. for 1 h, it was used to create a 10-mL gravity column, which was sequentially treated with 40 mL of wash buffer 1 (20 mM sodium phosphate, 500 mM NaCl, 1 mM DTT, 20 mM imidazole, 5% glycerol, pH 7.4) and 25 mL of wash buffer 2 (20 mM sodium phosphate, 500 mM NaCl, 1 mM DTT, 40 mM imidazole, 5% glycerol, pH 7.4). The hexahistidine-tagged protein was then recovered by treated the column with 5 mL elution buffer (20 mM sodium phosphate, 500 mM NaCl, 1 mM DTT, 400 mM imidazole, 5% glycerol, pH 7.4) and collecting 500-μL fractions. The protein concentration for each fraction was measured (500 μL elution volume was collected as one fraction and was immediately mixed with 500 μL glycerol. The protein concentration for each fraction was measured (600 nm Protein Assay Reagent; Thermo Fisher Scientific), and protein-containing fractions were diluted with an equal volume of glycerol and stored at −80° C. Samples from each step were also collected for SDS-PAGE gel analysis. For ALDH1B1 protein co-expression with chaperones, pET-15b-ALDH1B1 and GroEL/GroES (Addgene, plasmid pBB541) plasmids were co-transformed into competent BL21 E. coli cells, which were subsequently grown in 1 L of Luria-Bertani medium containing 100 μg/mL ampicillin and 50 μg/mL spectinomycin at 37° C. The hexahistidine-tagged ALDH1B1 protein was then expressed and purified as described above.
To evaluate compound activities against ALDH isoforms, reaction mixtures consisting of enzyme assay buffer (100 mM sodium phosphate, 1 mM MgCl2, pH 8.0) and 0.1% DMSO, 1 mM β-mercaptoethanol, 1 mM NAD^+, and the bacterially expressed protein were prepared in white opaque 96-well assay plates (100 μL/well, flat-bottom and non-treated; Corning Costar). 5 μg/mL ALDH enzyme was used for single-dose (1, 10, 50 μM) compound test, and 1 μg/mL ALDH enzyme was used for IC50s determination. Acetaldehyde was then added to each well to achieve an initial substrate concentration of 1 mM, and the resulting enzymatic activity was measured based on NADH fluorescence. The fluorescence signal was read over the course of 10 min on a SpectraMax M2e microplate reader (340-nm excitation and 460-nm emission; Molecular Devices) operated by SoftMax Pro software. Compound activities were normalized to a DMSO control, and dose-response inhibition curves were fitted with four-parameter non-linear regression using Prism software. […]

Data set [2] concerns SW480 cells (adherent). Description: Cell viability assay, adherent SW480 cultures. To be noted: adherent culture, 7 days. It counts as cell-based, human. As for the experimental part: SW480 or HCT116 cells were seeded into regular or Matrigel-coated 96-well plates at a density of 1000 cells/well. The cells were cultured in the corresponding adherent or spheroid culture medium (200 μL/well) containing the designated compounds or an equivalent amount of DMSO vehicle. Each culture was maintained for 7 days, and then cell viabilities were measured using a CellTiter-Glo 3D Cell Viability Assay kit (Promega). Briefly, 100 μL of the culture medium was removed from each well and replaced with 100 μL 3D Cell Assay reagent. The cells in each well were next homogenized by vigorous pipetting, and the plate was incubated for 10 min at room temperature to stabilize the chemiluminescent signal. A 150-μL aliquot from each well was then transferred into a white opaque 96-well assay plate (flat-bottom and non-treated; Corning Costar) and luminescence intensities were measured with a Veritas microplate luminometer (Turner BioSystems).

Data set [3] has as its system NIH-3T3 cells. Description: Seahorse oxygen-consumption-rate assay (NIH3T3). In kind it is cell-based, murine. To be noted: Mus musculus.
Data set [4] in a line: HEK-293T cytotoxicity (cell viability) assay. It counts as cell-based. To be noted: human, HEK-293T cells; adherent HEK-293T, 4-5 days, CellTiter-Glo; read-out: HEK293T GI50. As for the experimental part:
HEK-293T cells were seeded into a 96-well plate at a density of 5×10^3 cells/well and treated with varying concentrations of selected compounds or an equivalent amount of DMSO vehicle. The cells were cultured for 4-5 days without a media change, and after the DMSO-treated cells approached 100% confluence, the cell viabilities were measured using a CellTiter-Glo 3D Cell Viability Assay kit (Promega) and a Veritas microplate luminometer (Turner BioSystems) as described above.

The mark [5] stands for this setting: 1 μg/mL enzyme, 1 mM acetaldehyde, 1 mM NAD+, read-out: ALDH1B1(in vitro) IC50.

“Also recorded” adds a separate entry of the source. Read-outs that look alike come from different tables or passages of the source.

With `COc1ccccc1-n1cc(-c2ccccn2)[n+]2c1CCCCC2` [Compound 63], the “ALDH1B1 inhibition / isoform selectivity (in words)” value in data set [1] is “inactive against ALDH1B1”.

Regarding `COc1ccccc1C1=CN(c2ccc(-c3ccccc3)cc2)C2=NCCCCN12` [HPI-273], the concentration for 50% growth inhibition (GI50) (usually the concentration giving 50% growth inhibition) in data set [2] (Homo sapiens, SW480, 168 h) was determined as 5800 nM; in data set [4], 2800 nM. Besides, the results for the IC50 in data set [1] (setting [5]) and in data set [3] were 47 nM and 190 nM, respectively.

In the case of `COc1ccccc1-n1cc(-c2ccc(-c3ccccc3)cc2)[n+]2c1CCCCC2` [Imidazolium 2], the GI50 is 570 nM in data set [2] (Homo sapiens, SW480, 168 h) and 230 nM in data set [4]. For the same compound, the IC50 (usually the concentration that gives 50% inhibition) in data set [1] (setting [5]) is 42 nM; in data set [1] (FIG. 2, panel B, read-out: ALDH1B1 IC50 (dose-response experiments, text)) it was 57 nM; in data set [3], 180 nM. Further, the “activity against other ALDH1 enzymes relative to ALDH1B1” value in data set [1] (dose-response, ALDH1A1, ALDH1A3, ALDH1B1) is listed as “over an order of magnitude weaker activity against other ALDH1 enzymes”. Moreover, the “ALDH1B1 inhibition / isoform selectivity (in words)” value in data set [1] was “most potent”. Also, the “mode of ALDH1B1 inhibition with respect to NAD+” value in data set [1] (varying NAD+, Lineweaver-Burk) is “uncompetitive”. Besides, the “mode of ALDH1B1 inhibition with respect to acetaldehyde” value in data set [1] (varying acetaldehyde, Lineweaver-Burk) was “non-competitive”.

Turning to `COc1ccccc1-c1ccc(-c2cn(-c3ccccc3OC)c3[n+]2CCCCC3)cc1.[Br-]` [Imidazolium 8], the GI50 was 850 nM in data set [2] (Homo sapiens, SW480, 168 h) and 160 nM in data set [4]. The IC50 amounted to 47 nM in data set [1] (setting [5]) and 130 nM in data set [3]. Also, in data set [1] (dose-response, FIG. 15 panel d), the “potency against ALDH1B1 relative to imidazolium 2 (and 8)” value is on record as “comparable potencies”. The “ALDH1B1 inhibition / isoform selectivity (in words)” value in data set [1] was “ALDH1B1-specific inhibitors; also recorded: enhanced specificity for ALDH1B1 in comparison to imidazolium 2”.

For the compound `COc1ccccc1C1=CN(c2ccc(-c3ccccc3)cc2)C2=NCCCN12` [STL5-T-0002], the GI50 in data set [2] was determined as 8200 nM; in data set [4], 8900 nM. Moreover, the figures for the IC50 in data set [1] (setting [5]) and in data set [3] were 120 nM and 850 nM, respectively.

The record behind these values is US12570661B2, “Isoform-specific aldehyde dehydrogenase inhibitors” (The Board of Trustees of the Leland Stanford Junior …, priority 2020, dated 2026).
